Experimental findings from US20170362228A1, “TETRAHYDRO-PYRIDO[3,4-b]INDOLE ESTROGEN RECEPTOR MODULATORS AND USES THEREOF” (Genentech, Inc., priority 2016, published 2017) are described below.

Read-outs that look alike come from different tables or passages of the source.

Assay [1] deals with T1, estrogen receptor alpha (ESR1) (Homo sapiens, UniProt P03372).
T1 construct: endogenous in cells; host or cells: MCF7 breast cancer cells
T1 sequence (P03372 1-595): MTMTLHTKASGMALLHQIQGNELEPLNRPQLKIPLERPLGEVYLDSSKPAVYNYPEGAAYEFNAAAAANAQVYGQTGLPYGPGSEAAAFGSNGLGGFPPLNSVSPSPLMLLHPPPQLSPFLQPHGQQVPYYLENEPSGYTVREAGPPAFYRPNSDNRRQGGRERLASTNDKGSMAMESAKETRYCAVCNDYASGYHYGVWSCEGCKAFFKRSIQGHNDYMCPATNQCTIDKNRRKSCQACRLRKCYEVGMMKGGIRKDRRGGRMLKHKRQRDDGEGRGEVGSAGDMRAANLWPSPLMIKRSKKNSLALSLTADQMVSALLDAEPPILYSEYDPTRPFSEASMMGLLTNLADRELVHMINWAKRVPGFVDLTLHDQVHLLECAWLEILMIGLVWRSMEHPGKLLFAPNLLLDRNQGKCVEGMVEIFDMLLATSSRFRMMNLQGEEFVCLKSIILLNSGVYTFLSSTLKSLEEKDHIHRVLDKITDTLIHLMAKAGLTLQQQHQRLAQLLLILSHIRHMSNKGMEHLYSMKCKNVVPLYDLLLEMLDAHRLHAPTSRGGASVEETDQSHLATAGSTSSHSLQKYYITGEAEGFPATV
The assay can be described thus: Breast Cancer Cell ERa High Content Fluorescence Imaging Degradation Assay (Example 901). The class given is cell-based. The settings on record: Table 1a; MCF7 breast cancer cells, 4 hours; plateau of the maximal effect; DMSO and Fulvestrant define 0% and 100% changes in ESR1. As for the experimental part: MCF7 breast cancer cells were seeded on day 1 at a density of 10,000 cells per well in 384 well poly-lysine coated tissue culture plate (Greiner # T-3101-4), in 50 μL/well RPMI (phenol red free), 10% FBS (Charcoal stripped), containing L-glutamine. On day 2, compounds were prepared at 2 compound source concentrations: 100 μM and 1 μM (ultimately to give 2 overlapping titration curves), in a Labcyte low dead volume plate, 10 μL/well, and 10 μL of DMSO in designated wells for backfill, and 5 μM Fulvestrant (control compound) in designated wells. Compounds and controls were dispensed using a Labcyte Echo acoustic dispenser to dispense compounds with a predefined serial dilution (1.8×, 10 point, in duplicate) and appropriate backfill and control compounds (final total volume transferred was 417.5 nL and compound dispense volume ranges from 2.5 nL to 417.5 nL; 0.84% DMSO (v/v) final), ultimately producing a concentration range from 0.05 nM to 835 nM. Cell plates were incubated at 37° C., for 4 hours. Fixation and permeabilization were carried out using a Biotek EL406 plate washer and dispenser as follows. Cells were fixed by addition of 15 μL of 16% paraformaldehyde (Electron Microscopy Sciences #15710-S) directly to the 50 μL cell culture medium in each well using the peristaltic pump 5 μL cassette on a Biotek EL406 (final concentration of formaldehyde was 3.7% w/v). Samples were incubated 30 minutes. Well contents was aspirated and 50 μL/well of Phosphate Buffered Saline (PBS) containing 0.5% w/v bovine serum albumen, 0.5% v/v Triton X-100 (Antibody Dilution Buffer) was added to each well. Samples were incubated for 30 minutes. Well contents were aspirated and washed 3 times with 100 μL/well of PBS. Immunofluorescence staining of estrogen receptor alpha (ESR1) was carried out using a Biotek EL406 plate washer and dispenser as follows. The well supernatant was aspirated from the wells and 25 μL/well of anti-ESR1 mAb (F10) (Santa Cruz sc-8002) diluted 1:1000 in Antibody Dilution Buffer was dispensed. Samples were incubated for 2 hours at room temperature. Samples were washed 4 times with 100 μL/well of PBS. 25 uL/well of secondary antibody solution (Alexafluor 488 conjugate anti-mouse IgG (LifeTechnologies #A21202) diluted 1:1000 and Hoechst 33342 1 μg/ml diluted in Antibody Dilution Buffer) were dispensed into each well. Samples were incubated for 2 hours at room temperature. Samples were washed 3 times with 100 μL/well of PBS using a Biotek EL406. Quantitative fluorescence imaging of ESR1 was carried out using a Cellomics Arrayscan V (Thermo). Fluorescence images of the samples (Channel 1: XF53 Hoechst (DNA stain); Channel 2: XF53 FITC (ESR1 stain)) were acquired using a Cellomics VTI Arrayscan using the Bioapplication “Compartmental Analysis” using the auto-exposure (based on DMSO control wells) setting “peak target percentile” set to 25% target saturation for both channels. Channel 1 (DNA stain) was used to define the nuclear region (Circ). Measurements of “Mean_CircAvgIntCh2”, which is the Alexafluor 488 fluorescence intensity (ESR1) within the nuclear region, was measured on a per cell basis and averaged over all the measured cells. Data analysis was carried out using Genedata Screener Software, with DMSO and 5 nM Fulvestrant treated samples being used to define the 0% and 100% changes in ESR1. The “Robust Fit” method was used to define the inflexion point of curve (EC50) and the plateau of the maximal effect (Sinf). Degradation data for exemplary Formula I compounds is reported as ER-alpha MCF7 HCS Sinf(%) values in Table 1.

In the next assay the test system is MCF7 cells. The assay can be described thus: In vitro cell proliferation assays (Examples 902 and 903), MCF7. In kind it is cell-based. The settings on record: Homo sapiens. As for the experimental part:
Efficacy of estrogen receptor modulator compounds and chemotherapeutic compounds are measured by a cell proliferation assay employing the following protocol (Mendoza et al (2002) Cancer Res. 62:5485-5488).
The CellTiter-Glo® Luminescent Cell Viability Assay is a homogeneous method to determine the number of viable cells in culture based on quantitation of the ATP present, which signals the presence of metabolically active cells. The CellTiter-Glo® Assay is designed for use with multiwell plate formats, making it ideal for automated high-throughput screening (HTS), cell proliferation and cytotoxicity assays. The homogeneous assay procedure involves adding a single reagent (CellTiter-Glo® Reagent) directly to cells cultured in serum-supplemented medium. Cell washing, removal of medium or multiple pipetting steps are not required. The Cell Titer-Glo® Luminescent Cell Viability Assay, including reagents and protocol are commercially available (Promega Corp., Madison, Wis., Technical Bulletin TB288).
The assay assesses the ability of compounds to enter cells and inhibit cell proliferation. The assay principle is based on the determination of the number of viable cells present by quantitating the ATP present in a homogenous assay where addition of the Cell TiterGlo® reagent results in cell lysis and generation of a luminescent signal through the luciferase reaction. The luminescent signal is proportional to the amount of ATP present.
Procedure: Day 1—Seed Cell Plates (384-well black, clear bottom, microclear, TC plates with lid from Falcon #353962), Harvest cells, Seed cells at 1000 cells per 54 μl per well into 384 well Cell Plates for 3 days assay. Cell Culture Medium: RPMI or DMEM high glucose, 10% Fetal Bovine Serum, 2 mM L-Glutamine, P/S. Incubate 0/N (overnight) at 37° C., 5% CO2.
Day 2—Add Drug to Cells, Compound Dilution, DMSO Plates (serial 1:2 for 9 points). Add 20 μl of compound at 10 mM in the 2nd column of 96 well plate. Perform serial 1:2 across the plate (10 μl+20 μl 100% DMSO) for a total of 9 points using Precision Media Plates 96-well conical bottom polypropylene plates from Nunc (cat.#249946) (1:50 dilution). Add 147 μl of Media into all wells. Transfer 3 μl of DMSO+compound from each well in the DMSO Plate to each corresponding well on Media Plate using Rapidplate® (Caliper, a Perkin-Elmer Co.). For 2 drug combination studies, transfer one drug 1.5 μl of DMSO+compound from each well in the DMSO Plate to each corresponding well on Media Plate using Rapidplate. Then, transfer another drug 1.5 μl to the medium plate.
Drug Addition to Cells, Cell Plate (1:10 dilution): Add 6 μl of media+compound directly to cells (54 μl of media on the cells already). Incubate 3 days at 37° C., 5% CO2 in an incubator that will not be opened often.
Day 5—Develop Plates, Thaw Cell Titer Glo Buffer at room temperature: Remove Cell Plates from 37° C. and equilibrate to room temperature for about 30 minutes. Add Cell Titer-Glo® Buffer to Cell Titer-Glo® Substrate (bottle to bottle). Add 30 μl Cell Titer-Glo® Reagent (Promega cat.# G7572) to each well of cells. Place on plate shaker for about 30 minutes. Read luminescence on Analyst HT Plate Reader (half second per well).
Cell viability assays and combination assays: Cells were seeded at 1000-2000 cells/well in 384-well plates for 16 h. On day two, nine serial 1:2 compound dilutions were made in DMSO in a 96 well plate. The compounds were further diluted into growth media using a Rapidplate® robot (Zymark Corp., Hopkinton, Mass.). The diluted compounds were then added to quadruplicate wells in 384-well cell plates and incubated at 37° C. and 5% CO2. After 4 days, relative numbers of viable cells were measured by luminescence using Cell Titer-Glo® (Promega) according to the manufacturer's instructions and read on a Wallac Multilabel Reader® (PerkinElmer, Foster City). EC50 values were calculated using Prism® 4.0 software (GraphPad, San Diego). […]

Setting [2] is: MCF7, Table 1a, read-out: ER-alpha MCF7 HCS (EC50).
[3] abbreviates: MCF7, Table 2, Comparator compounds, read-out: ER-alpha MCF7 HCS EC50.

As a reminder, the EC50 is the concentration needed to bring the measured effect to its halfway point. Consider `C[C@@H]1Cc2c([nH]c3ccccc23)[C@@H](c2c(F)cc([C@@H](F)C3CN(CCCF)C3)cc2F)N1CC(F)(F)CO` (single isomer, unassigned) [Compound 104], for which, in assay [1], the “ER-alpha MCF7 HCS (S inf)” value is reported as −99.99%. Moreover, the EC50 in the assay with MCF7 cells (setting [2]) is 0.017 nM.

With `C[C@@H]1Cc2c([nH]c3ccccc23)[C@@H](c2c(F)cc([C@H](F)C3CN(CCCF)C3)cc2F)N1CC(F)(F)CO` (single isomer, unassigned) [Compound 105], the “ER-alpha MCF7 HCS (S inf)” value in assay [1] is −97.71%. The EC50 in the assay on MCF7 cells (setting [2]) was found to be 0.021 nM.

Consider `C[C@@H]1Cc2c([nH]c3ccc(F)cc23)[C@@H](c2c(F)cc([C@H](O)C3CN(CCCF)C3)cc2F)N1CC(F)(F)CO` (single isomer, unassigned) [Compound 114], for which, in assay [1], the “ER-alpha MCF7 HCS (S inf)” value is recorded as −100.60%. In the assay with MCF7 cells (setting [2]), the EC50 is 0.035 nM.

Regarding `C[C@@H]1Cc2c([nH]c3ccc(F)cc23)[C@@H](c2c(F)cc([C@@H](O)C3CN(CCCF)C3)cc2F)N1CC(F)(F)CO` (single isomer, unassigned) [Compound 115], the “ER-alpha MCF7 HCS (S inf)” value in assay [1] is −100.58%. For the same compound, in the assay with MCF7 cells (setting [2]), the half-maximal effective concentration (EC50) is 0.065 nM.

For `C[C@@H]1Cc2c([nH]c3ccccc23)[C@@H](c2c(F)cc([C@H](O)C3CN(CCCF)C3)cc2F)N1CC(F)F` (single isomer, unassigned) [Compound 121], the “ER-alpha MCF7 HCS (S inf)” value in assay [1] is on record as −98.21%. The EC50 with MCF7 cells (setting [2]) was 0.068 nM.

As to `C[C@@H]1Cc2c([nH]c3ccccc23)[C@@H](c2c(F)cc([C@@H](O)C3CN(CCCF)C3)cc2F)N1CC(F)F` (single isomer, unassigned) [Compound 122], the “ER-alpha MCF7 HCS (S inf)” value in assay [1] is on record as −98.05%. Further, the EC50 in the assay with MCF7 cells (setting [2]) stood at 0.035 nM.

Turning to `C[C@H]1Cc2c([nH]c3c(F)cccc23)[C@H](c2c(F)cc([C@H](O)C3CN(CCCF)C3)cc2F)N1CC(F)(F)CO` (single isomer, unassigned) [Compound 131], the “ER-alpha MCF7 HCS (S inf)” value in assay [1] is −95.59%. For the same compound, the EC50 in the assay with MCF7 cells (setting [2]) stood at 7.64 nM.

As to `C[C@@H]1Cc2c([nH]c3ccccc23)[C@@H](c2c(F)cc([C@@H](O)C3CN(CCCF)C3)cc2F)N1C[C@H](F)CO` (single isomer, unassigned) [Compound 139], the EC50 in the assay on MCF7 cells (setting [2]) is 0.31 nM.

Regarding `C[C@@H]1Cc2c([nH]c3ccccc23)[C@@H](c2c(F)cc(NC3CN(CCCF)C3)cc2F)N1CC(F)(F)CO` [Comparator compound A, 3-[(1R,3R)-1-[2,6-difluoro-4-[[1-(3-fluoropropyl)azetidin-3-yl]amino]phenyl]-3-methyl-1,3,4,9-tetrahydropyrido[3,4-b]indol-2-yl]-2,2-difluoro-propan-1-ol, reference compound], in the assay with MCF7 cells (setting [3]), the EC50 was 0.027 nM.

Turning to `C[C@@H]1Cc2c([nH]c3ccccc23)[C@@H](c2ccc([C@@H](O)C3CN(CCCF)C3)cc2)N1CC(C)(C)F` [Comparator compound B, (S)-(4-((1R,3R)-2-(2-fluoro-2-methylpropyl)-3-methyl-2,3,4,9-tetrahydro-1H-pyrido[3,4-b]indol-1-yl)phenyl)(1-(3-fluoropropyl)azetidin-3-yl)methanol, reference compound], the EC50 in the assay with MCF7 cells (setting [3]) came to 0.065 nM.

Turning to `C[C@@H]1Cc2c([nH]c3ccccc23)[C@@H](c2ccc([C@H](O)C3CN(CCCF)C3)cc2)N1CC(C)(C)F` [Comparator compound C, (R)-(4-((1R,3R)-2-(2-fluoro-2-methylpropyl)-3-methyl-2,3,4,9-tetrahydro-1H-pyrido[3,4-b]indol-1-yl)phenyl)(1-(3-fluoropropyl)azetidin-3-yl)methanol, reference compound], the EC50 in the assay on MCF7 cells (setting [3]) was determined as 0.12 nM.

`C[C@@H]1Cc2c([nH]c3ccccc23)[C@@H](c2c(F)cc([C@@H](F)C3CN(CCCF)C3)cc2F)N1CC(C)(C)F` [Compound 102, (1R,3R)-1-(2,6-difluoro-4-((S)-fluoro(1-(3-fluoropropyl)azetidin-3-yl)methyl)phenyl)-2-(2-fluoro-2-methylpropyl)-3-methyl-2,3,4,9-tetrahydro-1H-pyrido[3,4-b]indole]: in the assay on MCF7 cells (setting [2]), the EC50 amounted to 0.137 nM.
